In patent US20120322812A1, “RUTAECARPINE DERIVATIVES FOR TREATING INSOMNIA” (priority 2011, published 2012):

System: CYP1A2
Assay: MEROD assay in live Hepa1c1c7 cells preincubated with test compound (CYP1A2 induction)
Format: cell-based, mouse
Excerpt: FIG. 1 illustrates how caffeine is primarily metabolized to paraxanthine via CYP1A2 enzyme in a human, according to some embodiments. The MEROD (methoxyresorufin-O-demethylase) assay measures the activity of the enzyme (CYP1A2) that converts methoxyresorufin (probe substrate) to resorufin (demethylation) in the presence of NADPH. The resulting resorufin concentration can be measured using a fluorescence reader by setting the excitation and emission wavelengths at 544 and 590 nm, respectively.
For MEROD assay in live cells, Hepa1c1c7 cells were cultured in either 6-well or 24-well-plates. For the 24-well plate experiment, after confluent cells were incubated for approximately 20 hours with either resorufin, nitro-resorufin, chloro-resorufin, 3-MC or DMSO (in triplicates), culture media was removed and 180 μL fresh culture media containing […] methoxyresorufin was added per well. After 1 hour incubation at 37° C., 100 μL aliquot was taken from each well and the formation of resorufin was measured by fluorescence. […] After 5 hours incubation at 37° C., 100 μL aliquot was taken from each well, centrifuged at 12,000 g at RT for ˜5 min and the supernatants were placed into wells of a 96-well fluorescence plate and the formation of resorufin was measured by fluorescence.

formation of resorufin in live cells (MEROD assay) (Hepa1c1c7 cells incubated with 2 μM compound, compared to DMSO, 24-well and 6-well plate studies): significant difference | formation of resorufin in live cells (MEROD assay) (Hepa1c1c7 cells incubated with 10 μM compound): no marked difference
SMILES: O=c1c2ccc(Cl)cc2nc2n1CCc1c-2[nH]c2ccccc12 [chloro-rutaecarpine]
